Laboratory results published in US20170121315A1, “HETEROBICYCLICALLY SUBSTITUTED 4-OXOBUTANE ACID DERIVATIVES AND USE THEREOF” (priority 2014, published 2017).

Assays:
Type in all cases: biochemical
MMP-1 = biological target: T1, MMP-1 (Homo sapiens, UniProt P03956); experiment: In vitro MMP-1 inhibition test; conditions: human MMP-1
T1 construct: purchased R&D Systems 901-MP
T1 sequence (P03956 100-469): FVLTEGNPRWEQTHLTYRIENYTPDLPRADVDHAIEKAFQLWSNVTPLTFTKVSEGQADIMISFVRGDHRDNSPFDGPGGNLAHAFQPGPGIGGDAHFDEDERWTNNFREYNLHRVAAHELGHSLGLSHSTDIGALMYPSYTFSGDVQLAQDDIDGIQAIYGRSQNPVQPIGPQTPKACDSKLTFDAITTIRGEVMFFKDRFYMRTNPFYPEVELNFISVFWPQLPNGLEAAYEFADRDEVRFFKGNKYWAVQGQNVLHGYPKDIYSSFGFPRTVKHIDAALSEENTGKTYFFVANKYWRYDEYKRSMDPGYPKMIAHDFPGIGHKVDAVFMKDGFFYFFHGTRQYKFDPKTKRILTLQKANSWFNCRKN
Text: (§1) The MMP-mediated amidolytic cleavage of a suitable peptide substrate leads to an increase in fluorescent light here too. The signal intensity of the fluorescent light is directly proportional to the enzyme activity. The active concentration of a test compound at which half the enzyme is inhibited (50% signal intensity of the fluorescent light) is reported as the IC50 value.
(§2) Recombinant MMP-1 (R&D Systems, 901-MP) is chemically activated in accordance with the manufacturer's instructions using APMA. 1 μl of the test compound to be analysed (as a solution in DMSO, suitable concentrations e.g. 1 nM to 30 μM) is pipetted into 24 μl of activated enzyme (final concentration e.g. 2 nM) in reaction buffer (50 mM Tris/HCl pH 7.5, 10 mM CaCl2, 150 mM NaCl, 0.05% Brij®-35) in a white 384-hole microtiter plate (MTP). The enzymatic reaction is started by adding the intramolecularly quenched Mca-Pro-Leu-Gly-Leu-Dpa(Dnp)-Ala-Arg-NH2 substrate (final concentration e.g. 10 μM; R&D Systems, ES-001), so as to result in a total test volume of 50 μl. The course of the MMP-1 reaction is measured by measuring the fluorescence intensity (excitation 320 nm, emission 410 nm) over a suitable period of time (e.g. over 120 min at a temperature of 32° C.).

MMP-2 = biological target: T2, MMP-2 (Homo sapiens, UniProt P08253); experiment: In vitro MMP-2 inhibition test; conditions: human MMP-2
T2 construct: purchased R&D Systems 902-MP
T2 sequence (P08253 110-660): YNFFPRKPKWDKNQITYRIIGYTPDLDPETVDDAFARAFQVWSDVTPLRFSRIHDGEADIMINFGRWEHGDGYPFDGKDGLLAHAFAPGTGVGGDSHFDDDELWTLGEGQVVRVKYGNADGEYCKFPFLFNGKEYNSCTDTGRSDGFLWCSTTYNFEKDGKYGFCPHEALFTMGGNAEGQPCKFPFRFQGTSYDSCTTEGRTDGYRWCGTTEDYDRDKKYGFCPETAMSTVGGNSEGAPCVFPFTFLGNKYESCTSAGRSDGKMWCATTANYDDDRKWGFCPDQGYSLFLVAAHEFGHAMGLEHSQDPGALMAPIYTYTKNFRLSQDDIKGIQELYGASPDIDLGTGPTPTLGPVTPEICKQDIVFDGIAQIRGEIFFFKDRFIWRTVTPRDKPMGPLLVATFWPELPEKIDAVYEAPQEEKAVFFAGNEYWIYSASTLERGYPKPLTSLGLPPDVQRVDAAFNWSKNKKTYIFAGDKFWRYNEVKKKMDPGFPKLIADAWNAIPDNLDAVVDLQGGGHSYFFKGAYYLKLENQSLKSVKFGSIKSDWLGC
Text: as §1
as §2, with “MMP-2” for “MMP-1”, “902-MP)” for “901-MP)”

MMP-13 = biological target: T3, MMP-13 (Homo sapiens, UniProt P45452); experiment: In vitro MMP-13 inhibition test; conditions: human MMP-13
T3 construct: purchased R&D Systems 511-MP
Text: as §1
as §2, with “Recombinant MMP-13” for “Recombinant MMP-1”, “Systems, 511-MP)” for “Systems, 901-MP)”, “e.g. 0.1” for “e.g. 2”, “the MMP-13” for “the MMP-1”

SMILES	IC50 (MMP-1) [nM]	IC50 (MMP-2) [nM]	IC50 (MMP-13) [nM]
O=C(CC(CCn1nnc2ccccc2c1=O)C(=O)O)c1cc2ccc(OCCc3ccccc3)cc2s1 (racemic) [Example 114, (+/−)-4-Oxo-2-[2-(4-oxo-1,2,3-benzotriazin-3(4H)-yl)ethyl]-4-[6-(2-phenylethoxy)-1-benzothiophen-2-yl]butanoic acid]	> 40000	83	250
O=C(CC(CCn1nnc2ccccc2c1=O)C(=O)O)c1cc2cc(OCCc3ccccc3)ccc2o1 (single isomer, unassigned; (+)) [Example 21, (+)-4-Oxo-2-[2-(4-oxo-1,2,3-benzotriazin-3(4H)-yl)ethyl]-4-[5-(2-phenylethoxy)-1-benzofur-2-yl]butanoic acid]	> 40000	1900	1800
O=C(CC(CCn1nnc2ccccc2c1=O)C(=O)O)c1noc2cc(OCc3cccnc3)ccc12 (racemic) [Example 148, (+/−)-4-Oxo-2-[2-(4-oxo-1,2,3-benzotriazin-3(4H)-yl)ethyl]-4-[6-(pyridin-3-ylmethoxy)-1,2-benzoxazol-3-yl]butanoic acid]	> 40000	270	500
CCCCCCCOc1ccc2c(C(=O)CC(CCn3nnc4ccccc4c3=O)C(=O)O)coc2c1 (racemic) [Example 101, (+/−)-4-[6-(Heptyloxy)-1-benzofur-3-yl]-4-oxo-2-[2-(4-oxo-1,2,3-benzotriazin-3(4H)-yl)ethyl]butanoic acid]	> 40000	660	1100
O=C(CC(CCn1nnc2ccc(C(F)(F)F)cc2c1=O)C(=O)O)c1noc2cc(OCc3ccccc3)ccc12 (racemic) [Example 154, (+/−)-4-[6-(Benzyloxy)-1,2-benzoxazol-3-yl]-4-oxo-2-{2-[4-oxo-6-(trifluoromethyl)-1,2,3-benzotriazin-3(4H)-yl]ethyl}butanoic acid]	> 40000	5600	2300
O=C(CC(CCn1nnc2ccccc2c1=O)C(=O)O)c1noc2cc(OCC3CC3)ccc12 (racemic) [Example 150, (+/−)-4-[6-(Cyclopropylmethoxy)-1,2-benzoxazol-3-yl]-4-oxo-2-[2-(4-oxo-1,2,3-benzotriazin-3(4H)-yl)ethyl]butanoic acid]	> 40000	510	2400
O=C(CC(CCn1nnc2ccccc2c1=O)C(=O)O)c1coc2cc(OCCC3CCCC3)ccc12 (racemic) [Example 75, (+/−)-4-[6-(2-Cyclopentylethoxy)-1-benzofur-3-yl]-4-oxo-2-[2-(4-oxo-1,2,3-benzotriazin-3(4H)-yl)ethyl]butanoic acid]	> 40000	390	3800
O=C(CC(CCn1nnc2ccccc2c1=O)C(=O)O)c1noc2cc(OCCc3ccccc3)ccc12 (racemic) [Example 144, (+/−)-4-Oxo-2-[2-(4-oxo-1,2,3-benzotriazin-3(4H)-yl)ethyl]-4-[6-(2-phenylethoxy)-1,2-benzoxazol-3-yl]butanoic acid]	> 40000	730	1600
CCCCCCCOc1ccc2oc(C(=O)CC(CCn3nnc4ccccc4c3=O)C(=O)O)cc2c1 (racemic) [Example 31, (+/−)-4-[5-(Heptyloxy)-1-benzofur-2-yl]-4-oxo-2-[2-(4-oxo-1,2,3-benzotriazin-3(4H)-yl)ethyl]butanoic acid]	> 40000	4400	5100
O=C(CC(CCn1nnc2ccccc2c1=O)C(=O)O)c1cc2cc(OCCCc3ccccc3)ccc2o1 (racemic) [Example 37, (+/−)-4-Oxo-2-[2-(4-oxo-1,2,3-benzotriazin-3(4H)-yl)ethyl]-4-[5-(3-phenylpropoxy)-1-benzofur-2-yl]butanoic acid]	> 40000	3300	5200
O=C(CC(CCn1nnc2ccccc2c1=O)C(=O)O)c1noc2cc(OCc3ccccc3)ccc12 (racemic) [Example 145, (+/−)-4-[6-(Benzyloxy)-1,2-benzoxazol-3-yl]-4-oxo-2-[2-(4-oxo-1,2,3-benzotriazin-3(4H)-yl)ethyl]butanoic acid]	> 40000	430	1500
CCCCCOc1ccc2c(C(=O)CC(CCn3nnc4ccccc4c3=O)C(=O)O)coc2c1 (single isomer, unassigned) [Example 91, 4-Oxo-2-[2-(4-oxo-1,2,3-benzotriazin-3(4H)-yl)ethyl]-4-[6-(pentyloxy)-1-benzofur-3-yl]butanoic acid]	> 40000	96	370
O=C(O)[C@@H]1[C@@H](Cn2nnc3ccc(C(F)(F)F)cc3c2=O)CC[C@H]1C(=O)c1cc2cc(OCCc3ccccc3)ccc2o1 (single isomer, unassigned; enantiomer 2) [Example 159, (+)-(1RS,2SR,5RS)-2-{[4-Oxo-6-(trifluoromethyl)-1,2,3-benzotriazin-3(4H)-yl]methyl}-5-{[5-(2-phenylethoxy)-1-benzofur-2-yl]carbonyl}cyclopentanecarboxylic acid (enantiomer 2)]	> 40000	1700	660
